In one series the test system is #12424 PDX tumor model. Put plainly: Efficacy in pancreatic patient derived xenograft #12424 (PDX 12424-8P). The following applies: for growth inhibition versus saline control: both dose levels (Gemcitabine 35 and 100 mg/kg; Oxaliplatin 5 and 10 mg/kg).
Series [1] deals with human ovarian patient derived model OVx-132. The experiment in a line: Combination with carboplatin in ovarian patient derived model OVx-132. The series is classed as in vivo, Immunodeficient mice. The following applies: for growth arrest and tumor regression: docetaxel 5 mg/kg, 46scFv-ILs-DTXp3 25 mg/kg, carboplatin 60 mg/kg, combinations dosed 3 days apart, carboplatin first; for Time-to-tumor regrowth (TTR; time for tumor to double its volume): monitored 160 days. Here is the method: Immunodeficient mice were implanted with human ovarian patient derived model OVx-132. Animals randomized into the following experimental groups: Saline, docetaxel at 5 mg/kg, 46scFv-ILs-DTXp3 at 25 mg/kg, carboplatin 60 mg/kg, carboplatin/docetaxel, and carboplatin/46scFv-ILs-DTXp3. For the combinations groups carboplatin/docetaxel and carboplatin/46scFv-ILs-DTXp3 doses used for the monotherapy arms were combined and dosed 3 days a part with carboplatin being dosed first followed by the docetaxel or 46scFv-ILs-DTXp3.
The animals received four tail vein injections, at the intervals of 7 days. Tumor size was monitored once to twice weekly.
Tumor volume(TV)=[(length)×(width)^2]/2
Maximum response was calculated using the following formula where TV is tumor volume:
Max tumor regression=[(TVmin−TVday0)/TVday0]×100
Maximum tumor regression was classified as complete tumor regression (100% regression with no palpable tumor), partial tumor regression (max tumor regression more than 30%) or no tumor regression.
Animals were monitored until tumor regrowth or end of monitoring period (>120 days). Time to regrowth was defined as time for tumor to double its volume. Animals sacrificed prior to tumor volume doubling are censored.

Series [2] is described as follows: Short-term tolerance test of 46scFv-ILs-DTXp3 with Gemcitabine or Carboplatin. The series is classed as in vivo, CD-1 female mice. To be noted: for histopathology: individual hepatocyte necrosis: carboplatin combo and mono, gemcitabine combo with 46scFv-ILs-DTXp3 100 mpk; for histopathology: extramedullary hematopoiesis in the spleen: carboplatin mono and combo, Gemcitabine combo with 46scFv-ILs-DTXp3 100 mpk. Here is the method: Gemcitabine and Carboplatin are chemotherapeutic agents likely to be combined with 46scFv-ILs-DTXp3 in the clinic. Gemcitabine alone is well tolerated in mice; most protocols list an MTD for i.p. dosing around 240 mpk q3d. […] The stock concentration of 46scFv-ILs-DTXp3 was 11.09 mg/ml. Carboplatin was purchased from Hospira Inc and used at a stock concentration of 10 mg/ml. Gemcitibine was purchased from Sun Pharam and used at a stock concentration of 38 mg/ml.
CD-1 female mice (7-8 week old) were obtained from Charles River. During the treatment phase mice body weight was monitored daily. In order to assess the effect of drug scheduling on tolerability, animals were treated with a single dose of 46scFv-ILs-DTXp3 followed by a dose of either carboplatin or gemcitabine at various dose levels and starting at different timepoints post 46scFv-ILs-DTXp3 treatment (Table 3). Additionally, a single treatment group treated with carboplatin or gemcitabine was added.
At study end (10 days after last drug dose, i.e. day 10 for 8 h, day 11 for 24 h, and day 13 for 72 h combinations), mice were euthanized with carbon dioxide. Blood was collected by cardiac puncture. Catalyst analysis used an EQUINE-15 clip with an additional individual ALT assay added (Idexx, Westbrook, Mass.). Tissues collected included liver, kidney, spleen, heart, skeletal muscle (with skin attached). Tissues were fixed in 10% neutral buffered formalin ˜24 h, then stored in 70% ethanol. Tissues from mice in the highest-dose groups (all time points) as well as untreated and single-agent controls were shipped to Mass Histology Inc (Worcester, Mass.) for processing, and H&E staining of sectioned tissues. Received slides were scanned at 20X on the aperio bright field scanner.

Another series can be described thus: Hydrolysis in buffer. The following applies: 37° C. The series is classed as physicochemical. Here is the method: A volume of a 10 mg/mL solution of drug in DMSO as needed to provide the desired concentration (typically 16 μL to yield a 80 μg/mL solution) (see Table 1) is placed in a glass test tube or 4 mL vial. Additional DMSO may also be added (e.g. 64 μL when using 16 μL of drug solution) to yield a final total DMSO concentration of 4%. The DMSO solutions are mixed by brief vortexing, and then 2 mL (20 mM) HEPES buffer for pH 7.5 and 2 mL of (20 mM) phosphate buffer for pH 2.5 is added and the mixture is vortexed again. The initial pH may be adjusted by addition of HCl or NaOH.
Then 100 μL aliquots of the buffer solution of drug are transferred into HPLC vials and incubated in a 37° C. water bath. The remaining solution is also incubated at 37° C. in 4 mL vials for monitoring of pH.
At each time point 900 μL of 0.1% trifluoroacetic acid (TFA) in acetonitrile (ACN) is added to the HPLC vial and the contents are vortexed. The vials are then placed in an autosampler rack at 4° C. for HPLC analysis.
Time zero data points are typically obtained from a solution of 4 μL DMSO stock in 5 mL of 0.1% TFA/ACN (8 μg/mL).
HPLC analysis is performed on a SYNERGI 4 micron Polar RP-80A, 250×4.6 mm column, using a flow rate of 1 mL./min, a 50 μL injection volume, column temperature of 25° C. and with UV detection at 227 nm. Most compounds are analyzed using a 13 min gradient (Method A) from 30 to 66% acetonitrile in aqueous 0.1% TFA, followed by a 1 min gradient back to 30% and a hold at 30% for 6 minutes. If the retention time is too long for this method, a 20 min gradient (Method B) of 30 to 90% acetonitrile, followed by a 1 min return to 30% and held for 9 min at 30% is employed.
The extent of hydrolysis is reported in Table 4 below as the % PTX or DTX formation based on relative peak areas.

The next series concerns PDX model #14244. The experiment in a line: Efficacy in patient derived xenograft #14244 (PDX 14244-9P). The following applies: for maximal tumor response to drug compared to control group: both dose levels. (In general: A xenograft is tissue or cells of one species grown in another, often human tumour cells in immunodeficient mice.)
The subject of series [3] is Pancreatic PDX model #15010. The experiment in a line: Efficacy in pancreatic patient derived xenograft #15010 (PDX 15010-P5).
Procedure: (§1) Experiments were performed according to approved guidelines. CB.17 SCID mice were obtained from Roswell Park Cancer Institute, initially at 6-8 weeks of age. Per treatment group, 8 animals were treated, unless otherwise indicated. Tumor pieces were derived from donor mice and engrafted subcutaneously. Depending on the variability in tumor growth, animals were either randomized to the different arms at one specific timepoint or a rolling randomization was performed in which a subgroup of animals were randomized through a period of time to ensure less variability in starting sizes. Animals were randomized and dosing initiated when tumors reached an average volume of 200-250 mm^3 (range 100-400 mm^3), unless otherwise indicated.
(§2) For efficacy experiments, 46scFv-ILs-DTXp3 were generated as described in composition description.
(§3) Intravenous administration of the indicated doses of each agent was initiated when tumors reached an average volume of 200-250 mm^3 and continued for a total of four weekly doses. Tumor volumes were measured once to twice weekly during the dosing cycle and until tumors regrow or reaching maximum monitoring period of 120-160 days or animals were in poor general health and needed to be sacrificed. The tumor progression was monitored by palpation and caliper measurements of the tumors along the largest (length) and smallest (width) axis twice a week. The tumor sizes were determined twice weekly from the caliper measurements using the formula (Geran, R. I., et al., 1972 Cancer Chemother. Rep. 3:1-88):
(§4) Tumor volume (TV)=[(length)×(width)^2]/2
(§5) Single tumor volume curves for each animal were plotted and two metrics that describe antitumor effects were calculated as follows:
(§6) 1) Max Response=[(minimum TV−TV at day 0)/TV at day 0]×100
(§7) 2) Time to regrowth=Time for the tumor to reach four times its initial size
(§8) All statistical analysis between treatment groups was performed using JMP v11.0 software. For treatment group comparison, two-way ANOVA analysis was performed in conjunction with post hoc Tukey HSD statistical analysis.
The conditions of series [4]: mice; i.p. dosing q3d; most protocols list; cited from earlier work.

Molecules are shown by their SMILES.

Procedure for #12424 PDX tumor model: as §1, §2
Intravenous administration of the indicated doses of each agent was initiated when tumors reached an average volume of 200-250 mm^3 and continued for a total of four weekly doses. Tumor volumes were measured once to twice weekly during the dosing cycle and until tumors regrow or reaching maximum monitoring period of 120-160 days or animals were in poor general health and needed to be sacrificed. The tumor progression was monitored by palpation and caliper measurements of the tumors along the largest (length) and smallest (width) axis twice a week.
as §4, §5, §6, §7, §8
Model #12424 was maintained by passaging tumor fragments in immunodeficient mice. This PDX model was at passage 8 for study #12424-8P.
Procedure for PDX 14244-10P: CB.17 SCID mice were obtained from Roswell Park Cancer Institute, initially at 6-8 weeks of age. Per treatment group, 8 animals were treated, unless otherwise indicated. Tumor pieces were derived from donor mice and engrafted subcutaneously. Depending on the variability in tumor growth, animals were either randomized to the different arms at one specific timepoint or a rolling randomization was performed in which a subgroup of animals were randomized through a period of time to ensure less variability in starting sizes. Animals were randomized and dosing initiated when tumors reached an average volume of 200-250 mm^3 (range 100-400 mm^3), unless otherwise indicated.
Intravenous administration of the indicated doses of each agent was initiated when tumors reached an average volume of 200-250 mm^3 and continued for a total of four weekly doses. Tumor volumes were measured once to twice weekly during the dosing cycle and until tumors regrow or reaching maximum monitoring period of 120-160 days or animals were in poor general health and needed to be sacrificed. The tumor progression was monitored by palpation and caliper measurements of the tumors along the largest (length) and smallest (width) axis twice a week. The tumor sizes were determined twice weekly from the caliper measurements using the formula (Geran, R. I., et al., 1972 Cancer Chemother. Rep. 3:1-88): […]
Procedure for PDX model #14244: The pancreatic xenograft model series are true xenotransplant models that were directly engrafted from patient tumor resections into SCID mice for propagation and maintained by transplantation of tumor fragments (Hylander et al., 2005, 2013). […] CB.17 SCID mice were obtained from Roswell Park Cancer Institute, initially at 6-8 weeks of age. Per treatment group, 8 animals were treated, unless otherwise indicated. Tumor pieces were derived from donor mice and engrafted subcutaneously. Depending on the variability in tumor growth, animals were either randomized to the different arms at one specific timepoint or a rolling randomization was performed in which a subgroup of animals were randomized through a period of time to ensure less variability in starting sizes. Animals were randomized and dosing initiated when tumors reached an average volume of 200-250 mm^3 (range 100-400 mm^3), unless otherwise indicated.
For efficacy experiments, 46scFv-ILs-DTXp3 were generated as described in composition description. […] MM-398 was generated in house using the final commercial process.
as §3, §4, §5, §6, §7, §8
Model #14244 was maintained by passaging tumor fragments in immunodeficient mice. This PDX model was at passage 9 for study #14244-9P.

Regarding `O=c1[nH]cc(F)c(=O)[nH]1` [5-Fluorouracil], the “inhibition of tumor growth compared to saline control (time to regrowth)” value in the series on #12424 PDX tumor model (50 mg/kg, four weekly IV doses) is given as 12 days.

Consider `N.N.O=C([O-])C1(C(=O)[O-])CCC1.[Pt+2]` [Carboplatin], for which, in series [1], the “growth arrest and tumor regression” value was “minimal growth arrest and no tumor regression”; the “Time-to-tumor regrowth (TTR; time for tumor to double its volume)” value is “minor delay on time to regrowth”. The “weight loss in individual mice at day 6” value in series [2] (Carboplatin 84 mg/kg dosed 8 h or 24 h after 46scFv-ILs-DTXp3 100 mpk, regained weight by day 10-11) is reported as “at most 10%”. Also, in series [2] (highest-dose groups), the “histopathology: individual hepatocyte necrosis” value is given as “increased incidence of individual hepatocyte necrosis (minimal to mild)” and the “histopathology: extramedullary hematopoiesis in the spleen” value is “Increased extramedullary hematopoieisis (EMH) in the spleen”. Further, the “histopathology: mitotic rate in the liver” value in series [2] (carboplatin treated groups, highest-dose groups) is recorded as “increase in mitotic rate in the liver”.

Turning to `CCN(CC)CCCC(=O)O[C@@H](C(=O)O[C@H]1C[C@@]2(O)[C@@H](OC(=O)c3ccccc3)[C@@H]3[C@]4(OC(C)=O)CO[C@@H]4C[C@H](O)[C@@]3(C)C(=O)[C@H](O)C(=C1C)C2(C)C)[C@@H](NC(=O)OC(C)(C)C)c1ccccc1.Cl` [Compound 3, 2′-O-(4-Diethylamino Butanoyl) DTX Hydrochloride], the “Percentage of Hydrolysis (% DTX formation)” value in the series “Hydrolysis in buffer” (pH 2.5, 0 h) stood at 0.00%; in the series “Hydrolysis in buffer” (pH 2.5, 5 h) it was 0.00%; in “Hydrolysis in buffer” (pH 2.5, 24 h), 0.00%; in the series “Hydrolysis in buffer” (pH 2.5, 48 h), 0.00%; in “Hydrolysis in buffer” (pH 2.5, 96 h), 0%; in the series “Hydrolysis in buffer” (pH 7.5, 0 h) it was 0.00%. Moreover, the “Percentage of Hydrolysis (% DTX formation)” value is on record as 45.76% in “Hydrolysis in buffer” (pH 7.5, 5 h); 100.00% in the series “Hydrolysis in buffer” (pH 7.5, 24 h); 100.00% in “Hydrolysis in buffer” (pH 7.5, 48 h); 100% in “Hydrolysis in buffer” (pH 7.5, 96 h).

Turning to `CC(=O)O[C@@]12CO[C@@H]1C[C@H](O)[C@@]1(C)C(=O)[C@H](O)C3=C(C)[C@@H](OC(=O)[C@H](OC(=O)CCCN(C)C)[C@@H](NC(=O)OC(C)(C)C)c4ccccc4)C[C@@](O)([C@@H](OC(=O)c4ccccc4)[C@H]21)C3(C)C.Cl` [Compound 4], the “Percentage of Hydrolysis (% DTX formation)” value in “Hydrolysis in buffer” (pH 2.5, 0 h) is 0.00%; in “Hydrolysis in buffer” (pH 2.5, 5 h) it was 0.00%; in the series “Hydrolysis in buffer” (pH 2.5, 24 h) it was 0.00%; in the series “Hydrolysis in buffer” (pH 2.5, 48 h), 0.00%; in the series “Hydrolysis in buffer” (pH 2.5, 96 h), 0%; in “Hydrolysis in buffer” (pH 7.5, 0 h), 0.00%. Moreover, the “Percentage of Hydrolysis (% DTX formation)” value in “Hydrolysis in buffer” (pH 7.5, 5 h) is given as 76.07%; in the series “Hydrolysis in buffer” (pH 7.5, 24 h), 100.00%; in “Hydrolysis in buffer” (pH 7.5, 48 h), 100.00%; in the series “Hydrolysis in buffer” (pH 7.5, 96 h), 100%.

Take `Nc1ccn([C@@H]2O[C@H](CO)[C@@H](O)C2(F)F)c(=O)n1` [Gemcitabine]: the “delay of regrowth compared to saline (time to regrowth)” value in the series on PDX model #14244 (35 mg/kg) is “two”; with PDX model #14244 (100 mg/kg) it was 18 days. For the same molecule, the “maximal tumor response to drug compared to control group” value with PDX model #14244 is “did not demonstrate a significant tumor response to drug”. In addition, the “maximal response: decrease in tumor volume” value was 27% in series [3] (35 mg/kg) and 37% in series [3] (100 mg/kg). Besides, the “tumor growth inhibition relative to control (time to regrowth)” value in series [3] (35 mg/kg) came out at 27 days; in series [3] (100 mg/kg), 37 days. The “growth inhibition versus saline control” value with #12424 PDX tumor model is recorded as “statistically insignificant from saline control”. Further, the “growth (body weight)” value in series [2] (Gemcitabine 292 mg/kg, 72 h post-46scFv-ILs-DTXp3) is given as “least growth of the 292 mg/kg groups”. Besides, the “ALT and AST” value in series [2] (Gemcitabine 292 mg/kg, 72 h post-46scFv-ILs-DTXp3, study end) was “elevated ALT and AST at study end”. Further, the “histopathology: individual hepatocyte necrosis” value in series [2] (highest-dose groups) is “increased incidence of individual hepatocyte necrosis (minimal to mild)”. Also, the “histopathology: extramedullary hematopoiesis in the spleen” value in series [2] (highest-dose groups) was “Increased extramedullary hematopoieisis (EMH) in the spleen”. Further, the “toxicity (weight loss or catalyst enzyme profiling different than control mice)” value in series [2] (mice, following an i.v. dose for 10 days, doses as high as 291.6 mg/kg) was “did not find toxicity”. The MTD entry in series [4] is recorded as “around 240 mpk”. Also, the “time to regrowth: growth inhibition” value in the series with PDX 14244-10P (100 mg/kg) is 21.9 days. In addition, in the series with PDX 14244-10P (Gemcitabine monotherapy (100 mg/kg)), the “maximal response to therapy (tumor response)” value was 42.11%.

On to `O=C1[O][Pt]2([NH][C@@H]3CCCC[C@H]3[NH]2)[O]C1=O` [Oxaliplatin], for which the “delay of regrowth over control group (time to regrowth)” value in the series on PDX model #14244 (5 mg/kg) is listed as 2 days; in the series with PDX model #14244 (10 mg/kg), 1 days. Besides, in the series on PDX model #14244, the “maximal tumor response to drug compared to control group” value was “did not demonstrate a significant tumor response to drug”. Besides, the “tumor growth inhibition relative to control (time to regrowth)” value in series [3] (10 mg/kg) was determined as 30 days. In addition, the “maximal tumor response to drug versus saline control” value in series [3] (both treatment doses) is on record as “did not show a statistically significant difference from saline control”. Moreover, the “growth inhibition versus saline control” value in the series on #12424 PDX tumor model is “statistically insignificant from saline control”.

Turning to `CC(=O)O[C@@]12CO[C@@H]1C[C@H](O)[C@@]1(C)C(=O)[C@H](O)C3=C(C)[C@@H](OC(=O)[C@H](O)[C@@H](NC(=O)OC(C)(C)C)c4ccccc4)C[C@@](O)([C@@H](OC(=O)c4ccccc4)[C@H]21)C3(C)C` [docetaxel], in series [1], the “growth arrest and tumor regression” value is “minimal growth arrest and no tumor regression”; the “Time-to-tumor regrowth (TTR; time for tumor to double its volume)” value is “minor delay on time to regrowth”.

Source of the values: US20190070113A1, “Treating Ephrin Receptor A2 (Epha2) Positive Cancer with Targeted Docetaxel-Generating Nano-Liposome Compositions” (Merrimack Pharmaceuticals, Inc., priority 2016, published 2019).
